As a reminder, the IC50 is the concentration at which inhibition is half-maximal.

The test system of this assay is HCT116 colorectal cancer cells. Kind of assay: In vitro viability-based synergy assay (CellTiter Blue), dasatinib and C1368 alone and in combination. In general terms: Alamar Blue is a resazurin reagent that responds to reducing activity.

Description: HCT116 cells were plated at 3000 cells/well concentration into 96 well plates. […] Cells were incubated for an additional 72 hours and cellular viability measurements were performed using CellTiter Blue assay (Promega). IC50 values were calculated using XLFit and CI values were calculated using Calcusyn (Biosoft).

For the molecule `O=C(Nc1cccc(Nc2nccc(Nc3cccc(C(F)(F)F)c3)n2)c1)C1CC1` [C1368, Cyclopropanecarboxylic acid {3-[4-(3-trifluoromethyl-phenylamino)-pyrimidin-2-ylamino]-phenyl}-amide], the “IC50 value, agent alone” value (HCT116 cells, 72 hours treatment, single agent) is “undeterminable”.

`Cc1nc(Nc2ncc(C(=O)Nc3c(C)cccc3Cl)s2)cc(N2CCN(CCO)CC2)n1` [dasatinib]: the IC50 (Homo sapiens, HCT-116, 72 h, read-out: IC50 value, agent alone) was 600 nM.
